Data as given in ChEMBL document CHEMBL1143421, “Population pharmacokinetics at two dose levels and pharmacodynamic profiling of flucloxacillin” (Antimicrob Agents Chemother, 2007).

Assays:
[1] = Mean residence time in human at 1000 mg, iv infused for 5 mins; type: ADME, organism-based; conditions: in vivo
[2] = system: Homo sapiens; test: Nonrenal clearance in human at 1000 mg, iv infused for 5 mins; type: ADME, organism-based; conditions: in vivo
[3] = Total clearance in human at 1 g, iv infused for 5 mins; conditions: in vivo
[4] = system: Staphylococcus aureus; test: Bactericidal activity against methicillin-susceptible Staphylococcus aureus infected human at MIC of 0.75 mg/l at 6 g, iv administered as continuous infusion for 4 hrs; type: functional
[5] = system: Staphylococcus aureus; test: Bactericidal activity against methicillin-susceptible Staphylococcus aureus infected human at MIC of 0.25 mg/l at 1.5 g, iv administered every 6 hrs as 0.5 hrs infusion; type: functional
[6] = system: Staphylococcus aureus; test: Bacteriostatic activity against methicillin-susceptible Staphylococcus aureus infected human at MIC of 0.75 mg/l at 6 g, iv administered as continuous infusion for 4 hrs; type: functional
[7] = system: Homo sapiens; test: Nonrenal clearance in human at 500 mg, iv infused for 5 mins; type: ADME, organism-based; conditions: in vivo
[8] = Plasma concentration in human at 500 mg, iv infused for 5 mins; type: ADME, organism-based
[9] = Mean residence time in human at 500 mg, iv infused for 5 mins; type: ADME, organism-based; conditions: in vivo
[10] = system: Staphylococcus aureus; test: Bacteriostatic activity against methicillin-susceptible Staphylococcus aureus infected human at MIC of 0.75 mg/l at 1.5 g, iv administered every 6 hrs as 0.5 hrs infusion; type: functional
[11] = clinical; conditions: human, in vivo
Description: Total clearance in human at a loading dose of 1 g and maintenance dose of 1.2 g/h for 3 hrs

[12] = system: Staphylococcus aureus; test: Bacteriostatic activity against methicillin-susceptible Staphylococcus aureus infected human at MIC of 2 mg/l at 2 g, iv administered every 4 hrs as 0.5 hrs infusion; type: functional
[13] = system: Staphylococcus aureus; test: Bactericidal activity against methicillin-susceptible Staphylococcus aureus infected human at MIC of 1 mg/l at 2 g, iv administered every 4 hrs as 0.5 hrs infusion; type: functional
[14] = system: Homo sapiens; test: Metabolic stability in human assessed as urinary excretion of unchanged drug level at 1000 mg, iv infused for 5 mins; type: ADME, organism-based, Urine; conditions: in vivo
[15] = Total body clearance in human at 1000 mg, iv infused for 5 mins; conditions: in vivo
[16] = Plasma concentration in human at 1000 mg, iv infused for 5 mins; type: ADME, organism-based
[17] = Terminal half life in human at 1000 mg, iv infused for 5 mins; type: ADME, organism-based; conditions: in vivo, read-out: beta t1/2 (converted)
[18] = system: Staphylococcus aureus; test: Bactericidal activity against methicillin-susceptible Staphylococcus aureus infected human at MIC of 0.75 mg/l at 2 g, iv administered every 8 hrs as 4 hrs infusion; type: functional
[19] = system: Staphylococcus aureus; test: Bacteriostatic activity against methicillin-susceptible Staphylococcus aureus infected human at MIC of 1.5 mg/l at 2 g, iv administered every 8 hrs as 4 hrs infusions; type: functional
[20] = Protein binding in human plasma; type: ADME, cell-free; conditions: read-out: PPB (converted)
[21] = system: Staphylococcus aureus; test: Antibacterial activity against methicillin-susceptible Staphylococcus aureus; type: functional
[22] = Renal clearance in human at 500 mg, iv infused for 5 mins; type: ADME, organism-based, Kidney; conditions: in vivo, read-out: CL_renal (converted)
[23] = Renal clearance in human at a loading dose of 1 g and maintenance dose of 1.2 g/h for 3 hrs; type: ADME, organism-based, Kidney; conditions: in vivo, iv, read-out: CL_renal (converted)
[24] = Terminal half life in human at 500 mg, iv infused for 5 mins; type: ADME, organism-based; conditions: in vivo, read-out: beta t1/2 (converted)
[25] = Volume of distribution at steady state in human at 1000 mg, iv infused for 5 mins; type: ADME, organism-based; conditions: in vivo, read-out: Vdss
[26] = Volume of distribution at steady state in human at 500 mg, iv infused for 5 mins; type: ADME, organism-based; conditions: in vivo, read-out: Vdss
[27] = system: Homo sapiens; test: Metabolic stability in human assessed as urinary excretion of unchanged drug level at 500 mg, iv infused for 5 mins; type: ADME, organism-based, Urine; conditions: in vivo
[28] = species: Homo sapiens; test: Nonrenal clearance in human at a loading dose of 1 g and maintenance dose of 1.2 g/h for 3 hrs; type: ADME, organism-based; conditions: in vivo
[29] = Total body clearance in human at 500 mg, iv infused for 5 mins; conditions: in vivo
[30] = Renal clearance in human at 1000 mg, iv infused for 5 mins; type: ADME, organism-based, Kidney; conditions: in vivo, read-out: CL_renal (converted)

SMILES: Cc1onc(-c2c(F)cccc2Cl)c1C(=O)N[C@@H]1C(=O)N2[C@@H]1SC(C)(C)[C@@H]2C(=O)O [FLOXACILLIN]
- MRT [1]: 1.22 h
- CL [2]: 2.79 L/h
- clearance at 5 min [3]: 118 mL/min
- fT>MIC [4]: >=50%
- fT>MIC [5]: >=50%
- fT>MIC [6]: >=30%
- CL [7]: 2.72 L/h
- concentration at 5 min [8]: 86.8 µg/mL
- MRT [9]: 1.18 h
- Activity [10]: >30%
- clearance at 3 h [11]: 123 mL/min
- fT>MIC [12]: >=30%
- fT>MIC [13]: >=50%
- Activity [14]: 0.65
- clearance at 5 min [15]: 136 mL/min
- concentration at 5 min [16]: 167 µg/mL
- half-life [17]: 1.62 h
- fT>MIC [18]: >=50%
- fT>MIC [19]: >=30%
- fraction unbound [20]: 0.054
- MIC90 [21]: ≤ 0.5 µg/mL
- CL renal at 5 min [22]: 89.5 mL/min
- CL renal at 3 h [23]: 88.3 mL/min
- half-life [24]: 1.4 h
- Vd [25]: 9.97 L
- Vd [26]: 9.63 L
- Activity [27]: 0.66
- CL [28]: 2.1 L/h
- clearance at 5 min [29]: 136 mL/min
- CL renal at 5 min [30]: 88.2 mL/min
